US20070049564A1 (Wyeth, priority 2005, published 2007)
≈ marks a conversion by molar mass, not a printed value. Like-named read-outs stand apart in the source and are kept apart here.

Tests used:
E. coli GC 2236 = assay: MIC, broth microdilution; settings: Escherichia coli
E. coli GC 2233 = assay: MIC, broth microdilution; settings: Escherichia coli
E. coli GC 2234 = assay: MIC, broth microdilution; settings: Escherichia coli
E. coli GC 2272 = assay: MIC, broth microdilution; settings: Escherichia coli
E. coli GC 6465 = assay: MIC, broth microdilution; settings: Escherichia coli
E. coli GC 1073 = assay: MIC, broth microdilution; settings: Escherichia coli
S. aureus GC 1131 = assay: MIC, broth microdilution; settings: Staphylococcus aureus
S. aureus GC 6466 = assay: MIC, broth microdilution; settings: Staphylococcus aureus
S. aureus GC 1079 = assay: MIC, broth microdilution; settings: Staphylococcus aureus
S. aureus GC 4536 = assay: MIC, broth microdilution; settings: Staphylococcus aureus
S. aureus GC 6469 = assay: MIC, broth microdilution; settings: Staphylococcus aureus
S. epidermidis GC 4935 = assay: MIC, broth microdilution; settings: Staphylococcus epidermidis
E. faecalis GC 4555 = assay: MIC, broth microdilution; settings: Enterococcus faecalis
E. faecalis GC 2265 = assay: MIC, broth microdilution; settings: Enterococcus faecalis
E. faecium GC 2243 = assay: MIC, broth microdilution; settings: Enterococcus faecium
S. pneumoniae+ GC 4465 = assay: MIC, broth microdilution; settings: Streptococcus pneumoniae
S. pyogenes GC 4563 = assay: MIC, broth microdilution; settings: Streptococcus pyogenes
c. albicans GC 3066 = assay: MIC, broth microdilution
E. coli = assay: Range of MIC for E. coli strains; settings: Escherichia coli
Staph. = assay: Range of MIC for Staph. strains, including MRSA; settings: Staphylococcus aureus

MIC (E. coli GC 2236; GC2236, read-out: MINIMAL INHIBITORY CONCENTRATION MIC, pre-incubated in Human Serum): 32 µg/mL (≈ 41.1 µM)
MIC (E. coli GC 2236; GC2236, read-out: MINIMAL INHIBITORY CONCENTRATION MIC, pre-incubated in Mouse Serum): 1 µg/mL (≈ 1.29 µM)
MIC (E. coli GC 2236; GC2236, read-out: MINIMAL INHIBITORY CONCENTRATION MIC, pre-incubated in Water): > 64 µg/mL
MIC (E. coli GC 2233; GC2233, read-out: MINIMAL INHIBITORY CONCENTRATION MIC, pre-incubated in Human Serum): 16 µg/mL (≈ 20.6 µM)
MIC (E. coli GC 2233; GC2233, read-out: MINIMAL INHIBITORY CONCENTRATION MIC, pre-incubated in Mouse Serum): 0.5 µg/mL (≈ 0.643 µM)
MIC (E. coli GC 2233; GC2233, read-out: MINIMAL INHIBITORY CONCENTRATION MIC, pre-incubated in Water): > 64 µg/mL
MIC (E. coli GC 2234; GC2234, read-out: MINIMAL INHIBITORY CONCENTRATION MIC, pre-incubated in Human Serum): 16 µg/mL (≈ 20.6 µM)
MIC (E. coli GC 2234; GC2234, read-out: MINIMAL INHIBITORY CONCENTRATION MIC, pre-incubated in Mouse Serum): 1 µg/mL (≈ 1.29 µM)
MIC (E. coli GC 2234; GC2234, read-out: MINIMAL INHIBITORY CONCENTRATION MIC, pre-incubated in Water): > 64 µg/mL
MIC (E. coli GC 2272; GC2272, read-out: MINIMAL INHIBITORY CONCENTRATION MIC, pre-incubated in Human Serum): 16 µg/mL (≈ 20.6 µM)
MIC (E. coli GC 2272; GC2272, read-out: MINIMAL INHIBITORY CONCENTRATION MIC, pre-incubated in Mouse Serum): 1 µg/mL (≈ 1.29 µM)
MIC (E. coli GC 2272; GC2272, read-out: MINIMAL INHIBITORY CONCENTRATION MIC, pre-incubated in Water): > 64 µg/mL
MIC (E. coli GC 6465; GC6465, read-out: MINIMAL INHIBITORY CONCENTRATION MIC, pre-incubated in Human Serum): > 64 µg/mL
MIC (E. coli GC 6465; GC6465, read-out: MINIMAL INHIBITORY CONCENTRATION MIC, pre-incubated in Mouse Serum): 2 µg/mL (≈ 2.57 µM)
MIC (E. coli GC 6465; GC6465, read-out: MINIMAL INHIBITORY CONCENTRATION MIC, pre-incubated in Water): > 64 µg/mL
MIC (E. coli GC 1073; GC1073, read-out: MINIMAL INHIBITORY CONCENTRATION MIC, pre-incubated in Human Serum): 32 µg/mL (≈ 41.1 µM)
MIC (E. coli GC 1073; GC1073, read-out: MINIMAL INHIBITORY CONCENTRATION MIC, pre-incubated in Mouse Serum): 2 µg/mL (≈ 2.57 µM)
MIC (E. coli GC 1073; GC1073, read-out: MINIMAL INHIBITORY CONCENTRATION MIC, pre-incubated in Water): > 64 µg/mL
MIC (S. aureus GC 1131; GC1131, read-out: MINIMAL INHIBITORY CONCENTRATION MIC, pre-incubated in Human Serum): 2 µg/mL (≈ 2.57 µM)
MIC (S. aureus GC 1131; GC1131, read-out: MINIMAL INHIBITORY CONCENTRATION MIC, pre-incubated in Mouse Serum): 1 µg/mL (≈ 1.29 µM)
MIC (S. aureus GC 1131; GC1131, read-out: MINIMAL INHIBITORY CONCENTRATION MIC, pre-incubated in Water): 2 µg/mL (≈ 2.57 µM)
MIC (S. aureus GC 6466; GC6466, read-out: MINIMAL INHIBITORY CONCENTRATION MIC, pre-incubated in Human Serum): 1 µg/mL (≈ 1.29 µM)
MIC (S. aureus GC 6466; GC6466, read-out: MINIMAL INHIBITORY CONCENTRATION MIC, pre-incubated in Mouse Serum): 1 µg/mL (≈ 1.29 µM)
MIC (S. aureus GC 6466; GC6466, read-out: MINIMAL INHIBITORY CONCENTRATION MIC, pre-incubated in Water): 2 µg/mL (≈ 2.57 µM)
MIC (S. aureus GC 1079; GC1079, read-out: MINIMAL INHIBITORY CONCENTRATION MIC, pre-incubated in Human Serum): 2 µg/mL (≈ 2.57 µM)
MIC (S. aureus GC 1079; GC1079, read-out: MINIMAL INHIBITORY CONCENTRATION MIC, pre-incubated in Mouse Serum): 1 µg/mL (≈ 1.29 µM)
MIC (S. aureus GC 1079; GC1079, read-out: MINIMAL INHIBITORY CONCENTRATION MIC, pre-incubated in Water): 2 µg/mL (≈ 2.57 µM)
MIC (S. aureus GC 4536; GC4536, read-out: MINIMAL INHIBITORY CONCENTRATION MIC, pre-incubated in Human Serum): 1 µg/mL (≈ 1.29 µM)
MIC (S. aureus GC 4536; GC4536, read-out: MINIMAL INHIBITORY CONCENTRATION MIC, pre-incubated in Mouse Serum): 1 µg/mL (≈ 1.29 µM)
MIC (S. aureus GC 4536; GC4536, read-out: MINIMAL INHIBITORY CONCENTRATION MIC, pre-incubated in Water): 4 µg/mL (≈ 5.14 µM)
MIC (S. aureus GC 6469; GC6469, read-out: MINIMAL INHIBITORY CONCENTRATION MIC, pre-incubated in Human Serum): 2 µg/mL (≈ 2.57 µM)
MIC (S. aureus GC 6469; GC6469, read-out: MINIMAL INHIBITORY CONCENTRATION MIC, pre-incubated in Mouse Serum): 1 µg/mL (≈ 1.29 µM)
MIC (S. aureus GC 6469; GC6469, read-out: MINIMAL INHIBITORY CONCENTRATION MIC, pre-incubated in Water): 4 µg/mL (≈ 5.14 µM)
MIC (S. epidermidis GC 4935; GC4935, read-out: MINIMAL INHIBITORY CONCENTRATION MIC, pre-incubated in Human Serum): 4 µg/mL (≈ 5.14 µM)
MIC (S. epidermidis GC 4935; GC4935, read-out: MINIMAL INHIBITORY CONCENTRATION MIC, pre-incubated in Mouse Serum): 2 µg/mL (≈ 2.57 µM)
MIC (S. epidermidis GC 4935; GC4935, read-out: MINIMAL INHIBITORY CONCENTRATION MIC, pre-incubated in Water): 4 µg/mL (≈ 5.14 µM)
MIC (E. faecalis GC 4555; GC4555, read-out: MINIMAL INHIBITORY CONCENTRATION MIC, pre-incubated in Human Serum): 4 µg/mL (≈ 5.14 µM)
MIC (E. faecalis GC 4555; GC4555, read-out: MINIMAL INHIBITORY CONCENTRATION MIC, pre-incubated in Mouse Serum): 1 µg/mL (≈ 1.29 µM)
MIC (E. faecalis GC 4555; GC4555, read-out: MINIMAL INHIBITORY CONCENTRATION MIC, pre-incubated in Water): 4 µg/mL (≈ 5.14 µM)
MIC (E. faecalis GC 2265; GC2265, read-out: MINIMAL INHIBITORY CONCENTRATION MIC, pre-incubated in Human Serum): 4 µg/mL (≈ 5.14 µM)
MIC (E. faecalis GC 2265; GC2265, read-out: MINIMAL INHIBITORY CONCENTRATION MIC, pre-incubated in Mouse Serum): 1 µg/mL (≈ 1.29 µM)
MIC (E. faecalis GC 2265; GC2265, read-out: MINIMAL INHIBITORY CONCENTRATION MIC, pre-incubated in Water): 4 µg/mL (≈ 5.14 µM)
MIC (E. faecium GC 2243; GC2243, read-out: MINIMAL INHIBITORY CONCENTRATION MIC, pre-incubated in Human Serum): 2 µg/mL (≈ 2.57 µM)
MIC (E. faecium GC 2243; GC2243, read-out: MINIMAL INHIBITORY CONCENTRATION MIC, pre-incubated in Mouse Serum): 0.5 µg/mL (≈ 0.643 µM)
MIC (E. faecium GC 2243; GC2243, read-out: MINIMAL INHIBITORY CONCENTRATION MIC, pre-incubated in Water): 2 µg/mL (≈ 2.57 µM)
MIC (S. pneumoniae+ GC 4465; read-out: MINIMAL INHIBITORY CONCENTRATION MIC, pre-incubated in Human Serum): 2 µg/mL (≈ 2.57 µM)
MIC (S. pneumoniae+ GC 4465; read-out: MINIMAL INHIBITORY CONCENTRATION MIC, pre-incubated in Mouse Serum): 2 µg/mL (≈ 2.57 µM)
MIC (S. pneumoniae+ GC 4465; read-out: MINIMAL INHIBITORY CONCENTRATION MIC, pre-incubated in Water): 4 µg/mL (≈ 5.14 µM)
MIC (S. pyogenes GC 4563; GC4563, read-out: MINIMAL INHIBITORY CONCENTRATION MIC, pre-incubated in Human Serum): 0.25 µg/mL (≈ 0.321 µM)
MIC (S. pyogenes GC 4563; GC4563, read-out: MINIMAL INHIBITORY CONCENTRATION MIC, pre-incubated in Mouse Serum): 0.12 µg/mL (≈ 0.154 µM)
MIC (S. pyogenes GC 4563; GC4563, read-out: MINIMAL INHIBITORY CONCENTRATION MIC, pre-incubated in Water): 0.25 µg/mL (≈ 0.321 µM)
MIC (c. albicans GC 3066; Candida albicans, GC3066, read-out: MINIMAL INHIBITORY CONCENTRATION MIC): > 64 µg/mL
MINIMAL INHIBITORY CONCENTRATION MIC (c. albicans GC 3066; pre-incubated in Human Serum): >64 UG/ML
MINIMAL INHIBITORY CONCENTRATION MIC (c. albicans GC 3066; pre-incubated in Mouse Serum): >64 UG/ML
MIC (E. coli; 20 h, read-out: Range of MIC, E. coli (Mouse Serum)): 0.5 to 2 µg/mL (≈ 0.643 to 2.57 µM)
MIC (E. coli; read-out: Minimum inhibitory concentration (MIC), E. coli (water)): > 64 µg/mL
MIC (E. coli; read-out: Range of MIC, E. coli (Water)): > 64 µg/mL
MIC (Staph.; MRSA, read-out: Range of MIC, Staph (Mouse Serum)): 1 to 2 µg/mL (≈ 1.29 to 2.57 µM)
MIC (Staph.; MRSA, read-out: Range of MIC, Staph (Water)): 2 to 4 µg/mL (≈ 2.57 to 5.14 µM)
MIC (Staph.; read-out: Minimum inhibitory concentration (MIC), Staph (Human Serum)): 1 to 4 µg/mL (≈ 1.29 to 5.14 µM)
MIC (Staph.; read-out: Minimum inhibitory concentration (MIC), Staph (Water)): 2 to 4 µg/mL (≈ 2.57 to 5.14 µM)
Compound: Cc1ccc(C(=O)OCOC(=O)N(CC(=O)Nc2cc(N(C)C)c3c(c2O)C(=O)C2=C(O)[C@]4(O)C(=O)C(C(N)=O)=C(O)[C@@H](N(C)C)[C@@H]4C[C@@H]2C3)C(C)(C)C)cc1 [Example 47]
